{"source": "patent US4241087A", "about": "“Dysmenorrhea treatment” (William H. Rorer, Inc., priority 1979, dated 1980)", "format_in_all_cases": "cell-based", "key": {"[1]": {"test_system": "Ach induced contractions in the isolated gravid rat uterus", "test": "Ach induced contractions, isolated gravid rat uterus (isometric, non-cumulative dose response)", "conditions": "for inhibition at 160 µg/mL / inhibition at 40 µg/mL / inhibition at 80 µg/mL: Rattus norvegicus; for inhibition at 40 µg/mL: compound 40 μg/ml; for inhibition at 80 µg/mL: compound 80 μg/ml", "method": "(§1) Female virgin Wistar rats at an average weight of 160 g to 220 g are used for the experiment. Prior to the experiment, the animals are housed five per group and maintained according to standard animal husbandry procedures. The animals are treated with DES (100 mg/kg/body weight) 24 hours prior to the experiment.\n(§2) The stage of the estrus cycle is determined by vaginal smears on the morning of the experiment. Rats in estrus are killed by a blow on the head and the abdomen is opened. The two horns of the uterus are dissected out and transferred to a dish containing Bathing's solution (composition in g: NaCL, 8.046; KCl, 0.20; CaCl2.2H2 O, 0.132; MgCl2.6H2 O, 0.106; NaHCO3, 1.0; NaH2 PO4, 0.065; Dextrose, 1.0 distilled to 1 liter with distilled water). The two horns are separated and freed from mesentery in Bathing's solution. A thread is attached at each end of each horn and the uterine segment is mounted in a tissue bath (50 ml), maintained at 37° C. by a circulatory bath and aerated with 95% O2 5% CO2. One thread is attached to a fixed pin and the other to a transducer. Contractions are recorded isometrically on a Beckman dynograph in conjunction with a Grass force-displacement transducer (FTO3C) of which has been calibrated in g. tension, or isotonically in conjunction with a Harvard smooth muscle transducer (386). The tissue is subjected to a baseline tension of 0.5 g. The preparation is allowed to equilibrate for 30 minutes prior to the experiment.\n(§3) Various spasmogens (such as: acetylcholine chloride, PGF2a, PGE2, oxytocin, BaCl2 or ergonivine maleate) may be used to induce contractions in the isolated uterine strip. See \"In Vitro Methodology for Evaluation of Compound Effect on Isolated Guinea Pig Ileum\" for description of obtaining dose response curve. Afer the control dose-response curve is obtained, the tissue is allowed to relax for five minutes before the addition of the spasmolytic drug (inhibitory drug). The test drug is in contact with the tissue for two minutes before the dose-response curve is repeated. The inhibitory effect of the test drug is determined as follows: [formula]\n(§4) The % maximum response is calculated for each dose of the dose-response curve and the control and drug curves are plotted.\n(§5) The dose-response behavior on the isolated gravid rat uterus of Acetylcholine chloride, Oxytocin and PGF2a was compared in the presence and absence of varying doses of 1-(2',6'-dimethylphenyl)-3-methylamidinourea hydrochloride using the non-cumulative dose response method."}, "[2]": {"test_system": "Oxytocin induced contractions in the isolated gravid rat uterus", "test": "Oxytocin induced contractions, isolated gravid rat uterus (isometric, non-cumulative dose response)", "conditions": "for inhibition at 40 µg/mL / inhibition at 80 µg/mL / inhibition at 160 µg/mL: Rattus norvegicus; for inhibition at 40 µg/mL: compound 40 μg/ml; for inhibition at 80 µg/mL: compound 80 μg/ml; for inhibition at 160 µg/mL: compound 160 μg/ml", "method": "as §1, §2, §3, §4, §5"}, "[3]": {"test_system": "PGF2α induced contractions in the isolated gravid rat uterus", "test": "PGF2α induced contractions, isolated gravid rat uterus (isometric, non-cumulative dose response)", "conditions": "for inhibition at 40 µg/mL / inhibition at 80 µg/mL / inhibition at 160 µg/mL: Rattus norvegicus; for inhibition at 40 µg/mL: compound 40 μg/ml; for inhibition at 80 µg/mL: compound 80 μg/ml; for inhibition at 160 µg/mL: compound 160 μg/ml", "method": "as §1, §2, §3, §4, §5"}, "[4]": {"conditions": "increasing doses of compound, in vitro gravid rat uterus"}}, "data": [{"smiles": "CNC(=N)NC(=O)Nc1c(C)cccc1C.Cl", "note": "[1-(2',6'-dimethylphenyl)-3-methylamidinourea hydrochloride]", "values": [{"measurement": "inhibition at 160 µg/mL", "setting": "[1]; ACH-2, compound 160 μg/ml, Ach 2,560 μg/ml", "result": 67.4, "unit": "%"}, {"measurement": "inhibition at 40 µg/mL", "setting": "[1]; Ach 20 μg/ml", "result": 100, "unit": "%"}, {"measurement": "inhibition at 40 µg/mL", "setting": "[1]; Ach 40 μg/ml", "result": 83, "unit": "%"}, {"measurement": "inhibition at 40 µg/mL", "setting": "[1]; Ach 80 μg/ml", "result": 79.7, "unit": "%"}, {"measurement": "inhibition at 40 µg/mL", "setting": "[1]; Ach 160 μg/ml", "result": 46.8, "unit": "%"}, {"measurement": "inhibition at 40 µg/mL", "setting": "[1]; Ach 320 μg/ml", "result": 2.8, "unit": "%"}, {"measurement": "inhibition at 40 µg/mL", "setting": "[1]; Ach 640 μg/ml", "result": "< 2.8", "unit": "%"}, {"measurement": "inhibition at 80 µg/mL", "setting": "[1]; Ach 20 μg/ml", "result": 100, "unit": "%"}, {"measurement": "inhibition at 80 µg/mL", "setting": "[1]; Ach 40 μg/ml", "result": 100, "unit": "%"}, {"measurement": "inhibition at 80 µg/mL", "setting": "[1]; Ach 80 μg/ml", "result": 100, "unit": "%"}, {"measurement": "inhibition at 80 µg/mL", "setting": "[1]; Ach 160 μg/ml", "result": 95.8, "unit": "%"}, {"measurement": "inhibition at 80 µg/mL", "setting": "[1]; Ach 320 μg/ml", "result": 26.8, "unit": "%"}, {"measurement": "inhibition at 80 µg/mL", "setting": "[1]; Ach 640 μg/ml", "result": "< 26.8", "unit": "%"}, {"measurement": "inhibition at 160 µg/mL", "setting": "[1]; compound 160 μg/ml, Ach 20 μg/ml", "result": 100, "unit": "%"}, {"measurement": "inhibition at 160 µg/mL", "setting": "[1]; compound 160 μg/ml, Ach 40 μg/ml", "result": 100, "unit": "%"}, {"measurement": "inhibition at 160 µg/mL", "setting": "[1]; compound 160 μg/ml, Ach 80 μg/ml", "result": 100, "unit": "%"}, {"measurement": "inhibition at 160 µg/mL", "setting": "[1]; compound 160 μg/ml, Ach 160 μg/ml", "result": 100, "unit": "%"}, {"measurement": "inhibition at 160 µg/mL", "setting": "[1]; compound 160 μg/ml, Ach 320 μg/ml", "result": 93.3, "unit": "%"}, {"measurement": "inhibition at 160 µg/mL", "setting": "[1]; compound 160 μg/ml, Ach 640 μg/ml", "result": 93.6, "unit": "%"}, {"measurement": "inhibition at 160 µg/mL", "setting": "[1]; compound 160 μg/ml, Ach 1,280 μg/ml", "result": 84.6, "unit": "%"}, {"measurement": "inhibition at 160 µg/mL", "setting": "[1]; compound 160 μg/ml, Ach 5,120 μg/ml", "result": 61.2, "unit": "%"}, {"measurement": "inhibition at 160 µg/mL", "setting": "[1]; compound 160 μg/ml, Ach 10,240 μg/ml", "result": 62.7, "unit": "%"}, {"measurement": "inhibition of Acetylcholine chloride induced contractions (in words)", "setting": "[1]; [4]", "result": "dose dependent"}, {"measurement": "inhibition at 40 µg/mL", "setting": "[2]; Oxytocin 1 × 10^-4 U/ml", "result": "< 22.1", "unit": "%"}, {"measurement": "inhibition at 40 µg/mL", "setting": "[2]; Oxytocin 1 × 10^-5 U/ml", "result": 100, "unit": "%"}, {"measurement": "inhibition at 40 µg/mL", "setting": "[2]; Oxytocin 3 × 10^-5 U/ml", "result": 22.1, "unit": "%"}, {"measurement": "inhibition at 80 µg/mL", "setting": "[2]; Oxytocin 1 × 10^-4 U/ml", "result": 14.4, "unit": "%"}, {"measurement": "inhibition at 80 µg/mL", "setting": "[2]; Oxytocin 1 × 10^-5 U/ml", "result": 100, "unit": "%"}, {"measurement": "inhibition at 80 µg/mL", "setting": "[2]; Oxytocin 3 × 10^-4 U/ml", "result": "< 14.4", "unit": "%"}, {"measurement": "inhibition at 80 µg/mL", "setting": "[2]; Oxytocin 3 × 10^-5 U/ml", "result": 48.7, "unit": "%"}, {"measurement": "inhibition at 160 µg/mL", "setting": "[2]; Oxytocin 1 × 10^-3 U/ml", "result": 47.6, "unit": "%"}, {"measurement": "inhibition at 160 µg/mL", "setting": "[2]; Oxytocin 1 × 10^-4 U/ml", "result": 100, "unit": "%"}, {"measurement": "inhibition at 160 µg/mL", "setting": "[2]; Oxytocin 1 × 10^-5 U/ml", "result": 100, "unit": "%"}, {"measurement": "inhibition at 160 µg/mL", "setting": "[2]; Oxytocin 3 × 10^-3 U/ml", "result": 32.5, "unit": "%"}, {"measurement": "inhibition at 160 µg/mL", "setting": "[2]; Oxytocin 3 × 10^-4 U/ml", "result": 63.2, "unit": "%"}, {"measurement": "inhibition at 160 µg/mL", "setting": "[2]; Oxytocin 3 × 10^-5 U/ml", "result": 100, "unit": "%"}, {"measurement": "inhibition of Oxytocin induced contractions (in words)", "setting": "[2]; [4]", "result": "dose dependent"}, {"measurement": "inhibition at 40 µg/mL", "setting": "[3]; PGF2α 1 × 10^-7 M", "result": 39.5, "unit": "%"}, {"measurement": "inhibition at 40 µg/mL", "setting": "[3]; PGF2α 1 × 10^-8 M", "result": 99, "unit": "%"}, {"measurement": "inhibition at 40 µg/mL", "setting": "[3]; PGF2α 3 × 10^-7 M", "result": "< 39.5", "unit": "%"}, {"measurement": "inhibition at 40 µg/mL", "setting": "[3]; PGF2α 3 × 10^-8 M", "result": 95.1, "unit": "%"}, {"measurement": "inhibition at 80 µg/mL", "setting": "[3]; PGF2α 1 × 10^-6 M", "result": "< 48.9", "unit": "%"}, {"measurement": "inhibition at 80 µg/mL", "setting": "[3]; PGF2α 1 × 10^-7 M", "result": 64, "unit": "%"}, {"measurement": "inhibition at 80 µg/mL", "setting": "[3]; PGF2α 1 × 10^-8 M", "result": 98.2, "unit": "%"}, {"measurement": "inhibition at 80 µg/mL", "setting": "[3]; PGF2α 3 × 10^-7 M", "result": 48.9, "unit": "%"}, {"measurement": "inhibition at 80 µg/mL", "setting": "[3]; PGF2α 3 × 10^-8 M", "result": 91.3, "unit": "%"}, {"measurement": "inhibition at 160 µg/mL", "setting": "[3]; PGF2α 1 × 10^-6 M", "result": 96.1, "unit": "%"}, {"measurement": "inhibition at 160 µg/mL", "setting": "[3]; PGF2α 1 × 10^-7 M", "result": 98.5, "unit": "%"}, {"measurement": "inhibition at 160 µg/mL", "setting": "[3]; PGF2α 1 × 10^-8 M", "result": 100, "unit": "%"}, {"measurement": "inhibition at 160 µg/mL", "setting": "[3]; PGF2α 3 × 10^-6 M", "result": 86.8, "unit": "%"}, {"measurement": "inhibition at 160 µg/mL", "setting": "[3]; PGF2α 3 × 10^-7 M", "result": 96.1, "unit": "%"}, {"measurement": "inhibition at 160 µg/mL", "setting": "[3]; PGF2α 3 × 10^-8 M", "result": 100, "unit": "%"}, {"measurement": "inhibition of PGF2a induced contractions (in words)", "setting": "[3]; [4]", "result": "dose dependent"}]}]}
